Measurements from ChEMBL document CHEMBL4513160, “CO-ADD screening of MMV (CH) - Small Polar Library”.
Converted amounts (≈) assume the structure as drawn.

Experiments:
Acinetobacter baumannii = assay: microbe, parasite or virus in culture; conditions: ATCC 19606, 18 h, ASSAY_TEST Inhibition of Bacterial Growth, detection method Absorption (OD600), MEDIA CAMHB, plate type 384well, NBS, CORNING #3640
Description: Antibacterial activity against Acinetobacter baumannii ATCC 19606 (CO-ADD:GN_034); MIC in CAMBH media using NBS plates, by OD600

Pseudomonas aeruginosa [1] = assay: microbe, parasite or virus in culture; conditions: ATCC 27853, 18 h, ASSAY_TEST Inhibition of Bacterial Growth, detection method Absorption (OD600), MEDIA CAMHB, plate type 384well, NBS, CORNING #3640
Description: Antibacterial activity against Pseudomonas aeruginosa ATCC 27853 (CO-ADD:GN_042); MIC in CAMBH media using NBS plates, by OD(600)

Pseudomonas aeruginosa [2] = assay: Antibacterial activity against Pseudomonas aeruginosa PAO397 [PAO1 d(mexAB-oprM) d(mexCD-oprJ) d(mexEF-oprN) d(mexJKL) d(mexXY) d(opmH)] (CO-ADD:GN_211); MIC in CAMBH media using NBS plates, by OD(600); assay type: functional; conditions: ASSAY_TEST Inhibition of Bacterial Growth, detection method Absorption (OD600), MEDIA CAMHB, plate type 384well, CORNING #3640, time 18 hr

Row | SMILES | MIC (Acinetobacter baumannii) | MIC (Pseudomonas aeruginosa [1]) | MIC (Pseudomonas aeruginosa [2])
1 | Cc1cc(C(=O)Nc2ccc3c(c2)CCN3)n(C)n1 | > 300 µM | > 300 µM | > 300 µM
2 | CCCc1cc(C(=O)NCCc2nc(C)c[nH]2)[nH]n1 | > 300 µM | > 300 µM | 300 µM (≈ 78.4 µg/mL)
3 | Cc1c[nH]c2ccccc2c1=N | > 300 µM | > 300 µM | > 300 µM
4 | C[C@@]1(N)C[C@H]1c1ccccc1 | > 300 µM | > 300 µM | 200 µM (≈ 29.4 µg/mL)
5 | c1ccc2c(N3CCNCC3)cncc2c1 | > 300 µM | > 300 µM | > 300 µM
6 | COc1ccc(-c2ccnc(CO)c2)c(OC)c1 | > 300 µM | > 300 µM | > 300 µM
7 | NCC1CCOc2ccccc21 (centres undefined) | > 300 µM | > 300 µM | > 300 µM
8 | CC(CSc1n[nH]c(-c2ccccn2)n1)CS(C)(=O)=O (centres undefined) | > 300 µM | > 300 µM | > 300 µM
9 | C1CCC(C2CCNCC2)OC1 (centres undefined) | > 300 µM | > 300 µM | > 300 µM
10 | NS(=O)(=O)NCC1CCN(c2cccc(Br)c2)C1 (centres undefined) | > 300 µM | > 300 µM | > 300 µM
11 | CC(CN)N(C)C(=O)Cc1cccc2ccccc12 (centres undefined) | > 300 µM | > 300 µM | 
12 | NS(=O)(=O)NCCCc1ccc(Br)cc1F | > 300 µM | > 300 µM | > 300 µM
13 | CCS(=O)(=O)NCC(N)c1ccc(C(C)C)cc1 (centres undefined) | > 300 µM | > 300 µM | > 300 µM
14 | CNC(=O)C1CCN(C(=O)Nc2ccc(C)c(Cl)c2)C1 (centres undefined) | > 300 µM | > 300 µM | 90 µM (≈ 26.6 µg/mL)
15 | O=C1C=CC(=O)N1Cc1ccc(Cl)cc1 | > 300 µM | > 300 µM | > 300 µM
16 | CCOc1nnc(CN2CCC(C(N)=O)CC2)s1 | > 300 µM | > 300 µM | > 300 µM
17 | CCN1CCN(c2cc(C#N)ccn2)CC1 | > 300 µM | > 300 µM | > 300 µM
18 | c1cc(CNc2ncnc3[nH]ncc23)c2c(c1)OCO2 | > 300 µM | > 300 µM | > 300 µM
19 | CS(=O)(=O)CCNc1ccnc2ccc(Br)cc12 | > 300 µM | > 300 µM | > 300 µM
20 | OC[C@@H]1CCCN1Cc1ccc(F)c2cccnc12 | > 300 µM | > 300 µM | > 300 µM
21 | COc1cc(F)cc(NCC(=O)NCc2ccco2)c1 | > 300 µM | > 300 µM | > 300 µM
22 | c1ccc(Nc2nccs2)nc1 | > 300 µM | > 300 µM | > 300 µM

Row | SMILES | MIC (Acinetobacter baumannii) | MIC (Pseudomonas aeruginosa [1]) | MIC (Pseudomonas aeruginosa [2])
23 | Cc1cccc(S(=O)(=O)NC2CCNC2)c1Cl (centres undefined) | > 300 µM | > 300 µM | > 300 µM
24 | CNC(CO)c1cccc(Cl)c1Cl (centres undefined) | > 300 µM | > 300 µM | > 300 µM
25 | Nc1ccnc(-c2ccccc2)c1 | > 300 µM | > 300 µM | > 300 µM
26 | Cc1ccc(C(N)c2ccccn2)cc1 (centres undefined) | > 300 µM | > 300 µM | > 300 µM
27 | N#Cc1cc(N2CCC[C@@H]2CO)nc2ccccc12 | > 300 µM | > 300 µM | > 300 µM
28 | CCOc1cc(Cl)ccc1CN | > 300 µM | > 300 µM | > 300 µM
29 | NCc1cccc(-c2ccccn2)n1 | > 300 µM | 300 µM (≈ 55.6 µg/mL) | 200 µM (≈ 37 µg/mL)
30 | CS(=O)(=O)c1ccc(CN)o1 | > 300 µM | > 300 µM | > 300 µM
31 | O=C(Nc1cc[nH]n1)c1csc(I)c1 | > 300 µM | > 300 µM | > 300 µM
32 | CCCOc1ccccc1C(=O)NC1CCNC1 (centres undefined) | > 300 µM | > 300 µM | 25 µM (≈ 6.21 µg/mL)
33 | Cc1cccc(OCC(O)Cn2ccnc2C)c1 (centres undefined) | > 300 µM | > 300 µM | > 300 µM
34 | OC1(Cn2ccnn2)CCCNC1 (centres undefined) | > 300 µM | > 300 µM | > 300 µM
35 | COc1ncccc1-c1csc(NCCSC)n1 | > 300 µM | > 300 µM | > 300 µM
36 | CNc1nnc(-c2ccccc2)s1 | > 300 µM | > 300 µM | > 300 µM
37 | O=C(NC[C@H]1CCCN1)c1ccc2cccc(Cl)c2n1 | > 300 µM | > 300 µM | 300 µM (≈ 86.9 µg/mL)
38 | OCCNCCNCc1ccc(-c2ccccc2Cl)o1 | > 300 µM | > 300 µM | > 300 µM
39 | NCC1CCN(Cc2cccc(F)c2)CC1 | > 300 µM | > 300 µM | > 300 µM
40 | CCc1cccc(S(=O)(=O)N2CCC(NC)C2)c1 (centres undefined) | > 300 µM | > 300 µM | > 300 µM
41 | NC(=O)Nc1cccc(C(=O)Nc2ccc(Cl)cn2)c1 | > 300 µM | > 300 µM | > 300 µM
42 | COCC(O)CNc1c(C)c(C)nc2ccccc12 (centres undefined) | > 300 µM | > 300 µM | > 300 µM
43 | OC1(CNCc2ccc(Br)c3cccnc23)CCOC1 (centres undefined) | > 300 µM | > 300 µM | > 300 µM
44 | COc1ccc(OC)c(NC(=O)c2ccccn2)c1 | > 300 µM | > 300 µM | > 300 µM

Row | SMILES | MIC (Acinetobacter baumannii) | MIC (Pseudomonas aeruginosa [1]) | MIC (Pseudomonas aeruginosa [2])
45 | Cc1nnc(SCC(=O)NCCCc2csc(N)n2)s1 | > 300 µM | > 300 µM | > 300 µM
46 | CCc1nnc(NC(=O)c2cc(OC)ccn2)s1 | > 300 µM | > 300 µM | > 300 µM
47 | Cc1ccc(C)c2c(=O)cc(CN3CCC(N)C3)[nH]c12 (centres undefined) | > 300 µM | > 300 µM | > 300 µM
48 | OCc1ccncc1NCc1coc2ccccc12 | > 300 µM | > 300 µM | > 300 µM
49 | COc1ccc(CNCCCSc2nnnn2C)cc1 | > 300 µM | > 300 µM | > 300 µM
50 | COCC(C)NCc1ccccc1CN1CCCC1=O (centres undefined) | > 300 µM | > 300 µM | > 300 µM
51 | Cc1ncc(C)c(N)n1 | > 300 µM | 300 µM (≈ 36.9 µg/mL) | > 300 µM
52 | NC(=O)CSc1nc(-c2ccc(Br)cc2)c[nH]1 | > 300 µM | > 300 µM | 300 µM (≈ 93.7 µg/mL)
53 | c1cc2c(cc1C1=NN=C(NC3CC3)SC1)OCCO2 | > 300 µM | > 300 µM | > 300 µM
54 | CCCNc1nc(C)c(C(C)=O)s1 | > 300 µM | > 300 µM | 200 µM (≈ 39.7 µg/mL)
55 | NCCNc1ccc2ccccc2n1 | > 300 µM | > 300 µM | > 300 µM
56 | NCC(O)c1ccc(-c2ccccc2)cc1 (centres undefined) | > 300 µM | > 300 µM | > 300 µM
57 | CC(C)C(=O)c1cnccc1N | > 300 µM | > 300 µM | > 300 µM
58 | CCC(C#N)NC(=O)c1cnc(OC(C)C)c(Cl)c1 (centres undefined) | > 300 µM | > 300 µM | > 300 µM
59 | OCCCNc1ccnc2ccc(Cl)cc12 | > 300 µM | > 300 µM | > 300 µM
60 | CCOC(=O)C(CN)CC(C)C (centres undefined) | > 300 µM | > 300 µM | > 300 µM
61 | NCc1cnn(-c2ccc(Cl)cc2)c1 | > 300 µM | > 300 µM | > 300 µM
62 | Cc1ocnc1C(=O)Nc1ccc2c(c1)NCCC2 | > 300 µM | > 300 µM | > 300 µM
63 | CC(=O)Nc1ccc(-c2ccc(C#N)nc2)cc1 | > 300 µM | > 300 µM | > 300 µM
64 | NCC(=O)N(Cc1cccs1)Cc1cccs1 | > 300 µM | > 300 µM | > 300 µM
65 | CN1CCCN(c2nc3ccccc3cc2CO)CC1 | > 300 µM | > 300 µM | > 300 µM
